Here are results for 3 compounds from ChEMBL document CHEMBL1124713, “Synthesis of N-[N-(4-deoxy-4-amino-10-methylpteroyl)-4-fluoroglutamyl]- gamma-glutamate, an unusual substrate for folylpoly-gamma-glutamate synthetase and gamma-glutamyl hydrolase” (J Med Chem, 1990).

Type in all cases: ADME
A short description of data set [1]: Kinetic constant relative(Vmax) was determined in FPGS-catalyzed reaction.
Data set [2] is described as follows: Ratio of relative Vmax to Km was determined.
The test system of data set [3] is FPGS (folylpolyglutamate synthetase). Nature of the data set: Kinetic constant(Km) was determined in FPGS-catalyzed reaction.

Structures are written as SMILES.

In the case of `CN(Cc1cnc2nc(N)nc(N)c2n1)c1ccc(C(=O)N[C@@H](CCC(=O)O)C(=O)O)cc1` [METHOTREXATE], the “Relative Vmax” value in data set [1] is 1. Further, in data set [2], the Ratio was found to be 0.024. For the same compound, the Km (as a rule, the substrate concentration at which the rate is half of its maximum) in data set [3] is 42 µM.

Turning to `CN(Cc1cnc2nc(N)nc(N)c2n1)c1ccc(C(=O)NC(CCC(=O)NC(CCC(=O)O)C(=O)O)C(=O)O)cc1` (centres undefined), the “Relative Vmax” value in data set [1] is reported as 0.45. For the same compound, the Ratio in data set [2] stood at 0.012. Further, the Km in data set [3] came to 38 µM.

As to `CN(Cc1cnc2nc(N)nc(N)c2n1)c1ccc(C(=O)NC(CC(F)C(=O)NC(CCC(=O)O)C(=O)O)C(=O)O)cc1` (centres undefined), the “Relative Vmax” value in data set [1] amounted to 0.23. Further, the Ratio in data set [2] is on record as 0.0023. In addition, in data set [3], the Km was 100 µM.
